The target of assay [1] is His-GST-TVMV-hRIPK1(1-324) (Homo sapiens (Human), UniProt Q13546). The assay can be described thus: RIPK1 HTRF Binding Assay. To be noted: HTRF binding, 1 h at rt; read-out: RIPK1 (IC50). In short, it runs like this: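 HTRF probe-displacement binding: 1 nM His-GST-TVMV-hRIPK1(1-324) (baculovirus construct), 90.6 nM probe, 0.2 nM anti-GST-Tb in 20 mM HEPES, 10 mM MgCl2, 0.015% Brij-35, 4 mM DTT, 0.05 mg/mL BSA. Incubated 1 h at rt; FRET 520/495 nm ratio, inhibition relative to DMSO-only wells.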

Assay [2] concerns MLKL phosphorylation in HT29-L23 human colorectal adenocarcinoma cells. The assay can be described thus: MLKL Phosphorylation High-Content Assay. It counts as cell-based. To be noted: 6 h, necroptosis induced with TNFα, SMAC mimetic and Z-VAD, read-out: pMLKL (IC50). In short, it runs like this: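 HT29-L23 cells pretreated 30 min at 37 °C with compound (6.25 to 0.106 μM final), then necroptosis induced with TNFα 35 ng/mL, SMAC mimetic 700 nM and Z-VAD 140 nM for 6 h. Fixed cells immunostained for MLKL pS358 and imaged; IC50 and Ymax from 4-parameter logistic fit.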

Where a name gives a salt, the structure may show the parent alone. Read-outs that look alike come from different tables or passages of the source.

The text below walks through data of patent US11440913B2, “Aminoimidazopyridazines as kinase inhibitors” (BRISTOL-MYERS SQUIBB COMPANY, priority 2017, dated 2022).

A word on the IC50: it is the concentration at which inhibition is half-maximal.

His-GST-TVMV-hRIPK1(1-324), sequence (Q13546 1-324): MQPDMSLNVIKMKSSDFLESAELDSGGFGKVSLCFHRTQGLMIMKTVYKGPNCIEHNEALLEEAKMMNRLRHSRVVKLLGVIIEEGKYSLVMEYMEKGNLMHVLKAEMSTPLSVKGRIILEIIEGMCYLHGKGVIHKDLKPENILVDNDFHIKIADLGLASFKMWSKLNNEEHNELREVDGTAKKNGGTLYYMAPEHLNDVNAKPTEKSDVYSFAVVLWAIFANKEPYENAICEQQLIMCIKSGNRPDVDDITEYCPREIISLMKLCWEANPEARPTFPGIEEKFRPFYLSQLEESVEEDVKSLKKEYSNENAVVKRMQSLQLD

For the compound `CC(=O)Nc1cn2nc(-c3cnc(C)c(C(=O)NCc4ccc(F)c(F)c4OCC4CC4)c3)ccc2n1` [Example 209, N-{[2-(cyclopropylmethoxy)-3,4-difluorophenyl]methyl}-5-{2-acetamidoimidazo [1,2-b]pyridazin-6-yl}-2-methylpyridine-3-carboxamide], the IC50 in assay [1] came out at 133 nM; in assay [2] (Homo sapiens), 202 nM.
Turning to `CC(=O)Nc1cn2nc(-c3cnc(C)c(C(=O)NCc4cc(F)cc(F)c4OCC4CCC4)c3)ccc2n1` [Example 210, N-{[2-(cyclobutylmethoxy)-3,5-difluorophenyl]methyl}-5-{2-acetamidoimidazo[1,2-b]pyridazin-6-yl}-2-methylpyridine-3-carboxamide, TFA], the IC50 in assay [1] is 3 nM; in assay [2] it was 5 nM.
In the case of `CC(=O)Nc1cn2nc(-c3cnc(C)c(C(=O)NCC[C@@H](O)c4ccc(Cl)cc4)c3)ccc2n1` [Example 211, N-[(3R)-3-(4-chlorophenyl)-3-hydroxypropyl]-5-{2-acetamidoimidazo[1,2-b]pyridazin-6-yl}-2-methylpyridine-3-carboxamide], the concentration for half-maximal inhibition (IC50) in assay [1] is 62 nM; in assay [2] (Homo sapiens) it was 137 nM.
The matching figures for `CC(=O)Nc1cn2nc(-c3cnc(C)c(C(=O)NCc4cccc(F)c4OCC4CC4)c3)ccc2n1` [Example 212, N-{[2-(cyclopropylmethoxy)-3-fluorophenyl]methyl}-5-{2-acetamidoimidazo [1,2-b]pyridazin-6-yl}-2-methylpyridine-3-carboxamide]: 8 nM and 4 nM.
Taken in the same sequence, the figures for `CC(=O)Nc1cn2nc(-c3cnc(C)c(C(=O)NCc4cc(OC(F)(F)F)ccc4F)c3)ccc2n1` [Example 213, 5-{2-acetamidoimidazo[1,2-b]pyridazin-6-yl}-N-{[2-fluoro-5-(trifluoromethoxy)phenyl]methyl}-2-methylpyridine-3-carboxamide] were 7 nM and 6 nM.
Taken in the same sequence, the figures for `CC(=O)Nc1cn2nc(-c3cnc(C)c(C(=O)NCc4cc(F)cc(F)c4OCC4CC4)c3)ccc2n1` [Example 214, N-{[2-(cyclopropylmethoxy)-3,5-difluorophenyl]methyl}-5-{2-acetamidoimidazo[1,2-b]pyridazin-6-yl}-2-methylpyridine-3-carboxamide] were 1 nM and 16 nM.
On to `CC(=O)Nc1cn2nc(-c3cnc(C)c(C(=O)NCc4cc(OCC5CC5)ccc4F)c3)ccc2n1` [Example 215, N-{[5-(cyclopropylmethoxy)-2-fluorophenyl]methyl}-5-{2-acetamidoimidazo[1,2-b]pyridazin-6-yl}-2-methylpyridine-3-carboxamide], for which the 50% inhibitory concentration (IC50) in assay [1] worked out at 8 nM; in assay [2] (Homo sapiens) it was 22 nM.
On to `CC(=O)Nc1cn2nc(-c3cnc(C)c(C(=O)NCC[C@H](O)c4ccc(Cl)cc4)c3)ccc2n1` [Example 216, N-[(3S)-3-(4-chlorophenyl)-3-hydroxypropyl]-5-{2-acetamidoimidazo[1,2-b]pyridazin-6-yl}-2-methylpyridine-3-carboxamide], for which the IC50 was determined as 66 nM in assay [1] and 397 nM in assay [2] (Homo sapiens).
As to `CC(=O)Nc1cn2nc(-c3cnc(C)c(C(=O)NCc4cccnc4OCC4CCCC4)c3)ccc2n1` [Example 217, N-{[2-(cyclopentylmethoxy)pyridin-3-yl]methyl}-5-{2-acetamidoimidazo [1,2-b]pyridazin-6-yl}-2-methylpyridine-3-carboxamide], the IC50 in assay [1] came to 54 nM; in assay [2] (Homo sapiens), 205 nM.
Taken in the same sequence, the figures for `CC(=O)Nc1cn2nc(-c3cnc(C)c(C(=O)NCc4cc(F)ccc4OCC4CCCC4)c3)ccc2n1` [Example 218, N-{[2-(cyclopentylmethoxy)-5-fluorophenyl]methyl}-5-{2-acetamidoimidazo[1,2-b]pyridazin-6-yl}-2-methylpyridine-3-carboxamide] were 6 nM and 15 nM.
The matching figures for `CC(=O)Nc1cn2nc(-c3cnc(C)c(C(=O)NCc4c(F)cccc4OCC4CCC4)c3)ccc2n1` [Example 219, N-{[2-(cyclobutylmethoxy)-6-fluorophenyl]methyl}-5-{2-acetamidoimidazo[1,2-b]pyridazin-6-yl}-2-methylpyridine-3-carboxamide]: 3 nM and 1 nM.
In the case of `CC(=O)Nc1cn2nc(-c3cnc(C)c(C(=O)NCc4ccccc4OC(F)(F)F)c3)ccc2n1` [Example 220, 5-{2-acetamidoimidazo[1,2-b]pyridazin-6-yl}-2-methyl-N-{[2-(trifluoromethoxy)phenyl]methyl}pyridine-3-carboxamide], the IC50 in assay [1] stood at 202 nM; in assay [2] (Homo sapiens) it was 406 nM.
For the compound `CC(=O)Nc1cn2nc(-c3cnc(C)c(C(=O)NCc4cccc(OC(F)(F)F)c4)c3)ccc2n1` [Example 221, 5-{2-acetamidoimidazo[1,2-b]pyridazin-6-yl}-2-methyl-N-{[3-(trifluoromethoxy)phenyl]methyl}pyridine-3-carboxamide, TFA], the 50% inhibitory concentration (IC50) stood at 49 nM in assay [1] and 52 nM in assay [2] (Homo sapiens).
On to `CC(=O)Nc1cn2nc(-c3cnc(C)c(C(=O)NCc4cc(F)ccc4OC4CCCC4)c3)ccc2n1` [Example 222, N-{[2-(cyclopentyloxy)-5-fluorophenyl]methyl}-5-{2-acetamidoimidazo[1,2-b]pyridazin-6-yl}-2-methylpyridine-3-carboxamide], for which the IC50 was determined as 3 nM in assay [1] and 2 nM in assay [2] (Homo sapiens).
As to `CC(=O)Nc1cn2nc(-c3cnc(C)c(C(=O)NCc4c(F)cccc4OC4CCCC4)c3)ccc2n1` [Example 223, N-{[2-(cyclopentyloxy)-6-fluorophenyl]methyl}-5-{2-acetamidoimidazo[1,2-b]pyridazin-6-yl}-2-methylpyridine-3-carboxamide], the IC50 in assay [1] worked out at 4 nM; in assay [2] (Homo sapiens), 3 nM.
Taken in the same sequence, the figures for `CC(=O)Nc1cn2nc(-c3cnc(C)c(C(=O)NCc4ccccc4OC4CCOC4)c3)ccc2n1` (centres unmarked) [Example 224, 5-{2-acetamidoimidazo[1,2-b]pyridazin-6-yl}-2-methyl-N-{[2-(oxolan-3-yloxy)phenyl]methyl}pyridine-3-carboxamide] were 157 nM and 334 nM.
Turning to `CC(=O)Nc1cn2nc(-c3cnc(C)c(C(=O)NCc4ccccc4OC4CCCC4)c3)ccc2n1` [Example 225, N-{[2-(cyclopentyloxy)phenyl]methyl}-5-{2-acetamidoimidazo[1,2-b]pyridazin-6-yl}-2-methylpyridine-3-carboxamide], the figures for the IC50 in assay [1] and in assay [2] (Homo sapiens) were 5 nM and 3 nM, respectively.
Taken in the same sequence, the figures for `CC(=O)Nc1cn2nc(-c3cnc(C)c(C(=O)NCc4c(F)cccc4OCC4CC4)c3)ccc2n1` [Example 226, N-{[2-(cyclopropylmethoxy)-6-fluorophenyl]methyl}-5-{2-acetamidoimidazo[1,2-b]pyridazin-6-yl}-2-methylpyridine-3-carboxamide] were 6 nM and 3 nM.
`CC(=O)Nc1cn2nc(-c3cnc(C)c(C(=O)NCc4ccccc4OCC4CC4)c3)ccc2n1` [Example 227, N-{[2-(cyclopropylmethoxy)phenyl]methyl}-5-{2-acetamidoimidazo [1,2-b]pyridazin-6-yl}-2-methylpyridine-3-carboxamide]: the values for the half-maximal inhibitory concentration (IC50) in assay [1] and in assay [2] (Homo sapiens) were 8 nM and 21 nM, respectively.
Taken in the same sequence, the figures for `CC(=O)Nc1cn2nc(-c3cc(C(=O)N[C@@H](C)c4cc(OC(F)(F)F)ccc4F)cnc3C)ccc2n1` [Example 228, 5-{2-acetamidoimidazo[1,2-b]pyridazin-6-yl}-N-[(1S)-1-[2-fluoro-5-(trifluoromethoxy)phenyl]ethyl]-6-methylpyridine-3-carboxamide] were 16 nM and 193 nM.
Taken in the same sequence, the figures for `[2H]C([2H])([2H])[C@@H](NC(=O)c1cnc(C)c(-c2ccc3nc(NC(C)=O)cn3n2)c1)c1cc(OC(F)(F)F)ccc1F` [Example 229, 5-{2-acetamidoimidazo[1,2-b]pyridazin-6-yl}-N-[(1R)-1-[2-fluoro-5-(trifluoromethoxy)phenyl] (2,2,2-deutero)ethyl]-6-methylpyridine-3-carboxamide] were 134 nM and 436 nM.
As for `[2H]C([2H])(NC(=O)c1cnc(C)c(-c2ccc3nc(NC(C)=O)cn3n2)c1)c1cc(OC(F)(F)F)ccc1F` [Example 230, 5-{2-acetamidoimidazo[1,2-b]pyridazin-6-yl}-N-{[2-fluoro-5-(trifluoromethoxy)phenyl](deutero)methy 1}-6-methylpyridine-3-carboxamide], the IC50 amounted to 19 nM in assay [1] and 90 nM in assay [2] (Homo sapiens).
For `CC(=O)Nc1cn2nc(-c3cc(C(=O)NCCC(C)c4ccccc4)cnc3C)ccc2n1` (centres unmarked) [Example 231, 5-{2-acetamidoimidazo[1,2-b]pyridazin-6-yl}-6-methyl-N-(3-phenylbutyl)pyridine-3-carboxamide], the IC50 is 6 nM in assay [1] and 60 nM in assay [2].
Consider `CC(=O)Nc1cn2nc(-c3cc(C(=O)NCc4cccc(F)c4OCC4CC4)cnc3C)ccc2n1` [Example 232, N-{[2-(cyclopropylmethoxy)-3-fluorophenyl]methyl}-5-{2-acetamidoimidazo[1,2-b]pyridazin-6-yl}-6-methylpyridine-3-carboxamide], for which the half-maximal inhibitory concentration (IC50) in assay [1] and in assay [2] (Homo sapiens) was 4 nM in each case.
In the case of `CC(=O)Nc1cn2nc(-c3cc(C(=O)NCc4ccccc4OC(F)(F)F)cnc3C)ccc2n1` [Example 233, 5-{2-acetamidoimidazo[1,2-b]pyridazin-6-yl}-6-methyl-N-{[2-(trifluoromethoxy)phenyl]methyl}pyridine-3-carboxamide], the IC50 in assay [1] is 38 nM; in assay [2] (Homo sapiens) it was 276 nM.
